Experiment: GMBT, influence of a promotility agent
Type: in vivo, human
Details: Cisapride 10 mg the evening before and one half hour before a 350 kcal muffin test meal
Procedure: An experiment was done to examine the ability of the GMBT to detect changes introduced by the promotility agent, Cisapride. Gastric emptying tests employing a 350 kcal muffin test meal were administered on two occasions within a one-week period. One test was conducted as a control. The other test was conducted after treatment with Cisapride. Cisapride (10 mg) was administered at 10:00 P.M. on the evening prior to the test and one half hour before administration of the muffin test meal. Gastric emptying results for the control meal were delayed relative to the meal administered with Cisapride.

## COc1cc(N)c(Cl)cc1C(=O)NC1CCN(CCCOc2ccc(F)cc2)CC1OC (centres unmarked) [Cisapride]
p=0.05
  change in T½ versus control: significant decrease
p=0.21
  change in Tlag versus control: not significant
